# Measurements: patent US8791123B2, “Substituted pyrazolo[1,5-a]pyrimidine compounds as Trk kinase inhibitors” (Array Biopharma, Inc., priority 2009, dated 2014)
# pIC50: −log10 of the molar value. Like-named read-outs stand apart in the source and are kept apart here.
# How the values were obtained:
# [1] = target: Human Jak2 kinase domain (Homo sapiens (Human), UniProt O60674); test: Jak2 Inhibition Assay (Omnia kinase assay); format: biochemical; settings: read-out: Jak2 Enzyme IC50
# [2] = target: TrkA (histidine-tagged recombinant human TrkA, cytoplasmic domain) (Homo sapiens (Human), UniProt P04629); test: TrkA ELISA Assay; format: biochemical; settings: Table 1; ELISA, 500 μM ATP; read-out: TrkA Enzyme IC50
# Chain of TrkA (histidine-tagged recombinant human TrkA, cytoplasmic domain) (P04629 440-796): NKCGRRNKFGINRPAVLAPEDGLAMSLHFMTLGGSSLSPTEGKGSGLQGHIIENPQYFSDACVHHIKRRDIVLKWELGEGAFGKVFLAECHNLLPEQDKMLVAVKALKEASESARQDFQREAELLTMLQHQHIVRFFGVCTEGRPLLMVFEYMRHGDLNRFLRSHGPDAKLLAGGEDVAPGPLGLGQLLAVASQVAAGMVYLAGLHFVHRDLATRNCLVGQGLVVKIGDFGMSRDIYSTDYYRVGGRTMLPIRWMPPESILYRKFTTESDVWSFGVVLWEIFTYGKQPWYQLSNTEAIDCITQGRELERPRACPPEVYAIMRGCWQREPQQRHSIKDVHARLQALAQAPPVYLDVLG
# Procedure, shortened: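 ELISA read-out: a peroxidase-linked anti-phosphotyrosine antibody (PY20, 0.2 μg/mL) with TMB substrate, absorbance at 450 nm after acid stop. The plate-bound substrate was poly(Glu,Ala,Tyr; 6:3:1) at 0.025 mg/mL, phosphorylated by the recombinant His-tagged human TrkA cytoplasmic domain in the presence of inhibitors.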
# [3] = Table 1, 500 μM ATP, >1000 nM when >50% inhibition not observed at 1000 nM
# Chain of Human Jak2 kinase domain (O60674 808-1132): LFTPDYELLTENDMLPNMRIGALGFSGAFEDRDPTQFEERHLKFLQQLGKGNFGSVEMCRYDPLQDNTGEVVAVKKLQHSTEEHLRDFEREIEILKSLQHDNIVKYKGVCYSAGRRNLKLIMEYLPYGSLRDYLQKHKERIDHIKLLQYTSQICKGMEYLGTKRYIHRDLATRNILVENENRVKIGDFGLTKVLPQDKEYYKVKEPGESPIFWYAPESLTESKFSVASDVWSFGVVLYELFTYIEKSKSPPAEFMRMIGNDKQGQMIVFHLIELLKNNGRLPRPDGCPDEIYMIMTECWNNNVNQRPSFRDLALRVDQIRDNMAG
"pIC50 [1, 3]",pIC50 [2],pIC50 [1],Compound
< 6.00,7.81,,"Cc1ncc(F)cc1[C@H]1CCCN1c1ccn2ncc(C(=O)NC3(CO)CC3)c2n1 [Example 193, (R)-5-(2-(5-fluoro-2-methylpyridin-3-yl)pyrrolidin-1-yl)-N-(1-(hydroxymethyl)cyclopropyl)pyrazolo[1,5-a]pyrimidine-3-carboxamide]"
< 6.00,8.17,,"Cc1ncc(F)cc1[C@H]1CCCN1c1ccn2ncc(C(=O)N[C@H]3CC[C@H](O)C3)c2n1 [Example 196, 5-((R)-2-(5-fluoro-2-methylpyridin-3-yl)pyrrolidin-1-yl)-N-((1S,3S)-3-hydroxycyclopentyl)pyrazolo[1,5-a]pyrimidine-3-carboxamide]"
< 6.00,7.90,,"CCc1ncc(F)cc1[C@H]1CCCN1c1ccn2ncc(C(=O)N[C@H]3CC[C@H](O)C3)c2n1 [Example 200, 5-((R)-2-(2-ethyl-5-fluoropyridin-3-yl)pyrrolidin-1-yl)-N-((1S,3S)-3-hydroxycyclopentyl)pyrazolo[1,5-a]pyrimidine-3-carboxamide]"
< 6.00,7.71,,"CC(C)(C)NC(=O)c1cnn2ccc(N3CCC[C@@H]3c3cc(F)c[nH]c3=O)nc12 [Example 202, (R)—N-tert-butyl-5-(2-(5-fluoro-2-oxo-1,2-dihydropyridin-3-yl)pyrrolidin-1-yl)pyrazolo[1,5-a]pyrimidine-3-carboxamide]"
< 6.00,8.41,,"CC1(C)OCC(COc2cc(F)cc([C@H]3CCCN3c3ccn4ncc(C(=O)NC5CC5)c4n3)c2)O1 (stereo partly drawn) [Example 206, N-cyclopropyl-5-((2R)-2-(3-((2,2-dimethyl-1,3-dioxolan-4-yl)methoxy)-5-fluorophenyl)pyrrolidin-1-yl)pyrazolo[1,5-a]pyrimidine-3-carboxamide]"
< 6.00,8.77,,"O=C(NC1CC1)c1cnn2ccc(N3CCC[C@@H]3c3cc(F)cc(OCC(O)CO)c3)nc12 (stereo partly drawn) [Example 208, N-cyclopropyl-5-((2R)-2-(3-(2,3-dihydroxypropoxy)-5-fluorophenyl)pyrrolidin-1-yl)pyrazolo[1,5-a]pyrimidine-3-carboxamide]"
< 6.00,7.82,,"CC(C)NC(=O)c1cnn2ccc(N3[C@H](CO)CC[C@@H]3c3cncc(F)c3)nc12 [Example 215, 5-((2R,5S)-2-(5-fluoropyridin-3-yl)-5-(hydroxymethyl)pyrrolidin-1-yl)-N-isopropylpyrazolo[1,5-a]pyrimidine-3-carboxamide]"
< 6.00,6.73,,"CC(C)NC(=O)c1cnn2ccc(N3[C@@H](c4cncc(F)c4)CC[C@@]3(C)CO)nc12 [Example 219, 5-((2S,5R)-5-(5-fluoropyridin-3-yl)-2-(hydroxymethyl)-2-methylpyrrolidin-1-yl)-N-isopropylpyrazolo[1,5-a]pyrimidine-3-carboxamide]"
< 6.00,7.31,,"Nc1ncc(F)cc1[C@H]1CCCN1c1ccn2ncc(C(=O)N3CCC3)c2n1 [Example 221, (R)-(5-(2-(2-amino-5-fluoropyridin-3-yl)pyrrolidin-1-yl)pyrazolo[1,5-a]pyrimidin-3-yl)(azetidin-1-yl)methanone]"
< 6.00,7.28,,"O=C(NOCCO)c1cnn2ccc(N3CCC[C@@H]3c3cc(F)cnc3Cl)nc12 [Example 225, (R)-5-(2-(2-chloro-5-fluoropyridin-3-yl)pyrrolidin-1-yl)-N-(2-hydroxyethoxy)pyrazolo[1,5-a]pyrimidine-3-carboxamide]"

# Second part, the molecule before the results:
Compound,"pIC50 [1, 3]",pIC50 [2],pIC50 [1]
"Cc1ncc(F)cc1[C@H]1CCCN1c1ccn2ncc(C(=O)N[C@@H]3CCC[C@H]3O)c2n1 [Example 197, 5-((R)-2-(5-fluoro-2-methylpyridin-3-yl)pyrrolidin-1-yl)-N-((1R,2R)-2-hydroxycyclopentyl)pyrazolo[1,5-a]pyrimidine-3-carboxamide]",< 6.00,8.32,
"Cc1ncc(F)cc1[C@H]1CCCN1c1ccn2ncc(C(=O)N[C@H]3CN4CCC3CC4)c2n1 [Example 198, 5-((R)-2-(5-fluoro-2-methylpyridin-3-yl)pyrrolidin-1-yl)-N-((R)-quinuclidin-3-yl)pyrazolo[1,5-a]pyrimidine-3-carboxamide]",< 6.00,6.61,
"CC1(C)OCC(COc2ccc(F)cc2[C@H]2CCCN2c2ccn3ncc(C(=O)NC4CC4)c3n2)O1 (stereo partly drawn) [Example 204, N-cyclopropyl-5-((2R)-2-(2-((2,2-dimethyl-1,3-dioxolan-4-yl)methoxy)-5-fluorophenyl)pyrrolidin-1-yl)pyrazolo[1,5-a]pyrimidine-3-carboxamide]",< 6.00,7.78,
"CC1(C)OCC(COc2ccc(F)cc2[C@H]2CCCN2c2ccn3ncc(C(N)=O)c3n2)O1 (stereo partly drawn) [Example 205, 5-((2R)-2-(2-((2,2-dimethyl-1,3-dioxolan-4-yl)methoxy)-5-fluorophenyl)pyrrolidin-1-yl)pyrazolo[1,5-a]pyrimidine-3-carboxamide]",< 6.00,7.84,
"NC(=O)c1cnn2ccc(N3CCC[C@@H]3c3cc(F)cc(OCC(O)CO)c3)nc12 (stereo partly drawn) [Example 209, 5-((2R)-2-(3-(2,3-dihydroxypropoxy)-5-fluorophenyl)pyrrolidin-1-yl)pyrazolo[1,5-a]pyrimidine-3-carboxamide]",< 6.00,7.77,
"O=C(NC1CC1)c1cnn2ccc(N3CCC[C@@H]3c3cc(F)ccc3OCC(O)CO)nc12 (stereo partly drawn) [Example 210, N-cyclopropyl-5-((2R)-2-(2-(2,3-dihydroxypropoxy)-5-fluorophenyl)pyrrolidin-1-yl)pyrazolo[1,5-a]pyrimidine-3-carboxamide]",< 6.00,8.48,
"CC1(NC(=O)c2cnn3ccc(N4[C@H](CO)CC[C@@H]4c4cncc(F)c4)nc23)CC1 [Example 214, 5-((2R,5S)-2-(5-fluoropyridin-3-yl)-5-(hydroxymethyl)pyrrolidin-1-yl)-N-(1-methylcyclopropyl)pyrazolo[1,5-a]pyrimidine-3-carboxamide]",< 6.00,8.07,
"CC(C)NC(=O)c1cnn2ccc(N3C[C@@H](O)C[C@@H]3c3cccc(F)c3)nc12 [Example 217, 5-((2R,4S)-2-(3-fluorophenyl)-4-hydroxypyrrolidin-1-yl)-N-isopropylpyrazolo[1,5-a]pyrimidine-3-carboxamide]",6.26,8.24,
"CNC(=O)c1cnn2ccc(N3C[C@@H](O)C[C@@H]3c3cccc(F)c3)nc12 [Example 218, 5-((2R,4S)-2-(3-fluorophenyl)-4-hydroxypyrrolidin-1-yl)-N-methylpyrazolo[1,5-a]pyrimidine-3-carboxamide]",< 6.00,7.47,
"C[C@H](NC(=O)c1cnn2ccc(N3[C@@H](c4cncc(F)c4)CC[C@@]3(C)CO)nc12)C(F)(F)F [Example 220, 5-((2S,5R)-5-(5-fluoropyridin-3-yl)-2-(hydroxymethyl)-2-methylpyrrolidin-1-yl)-N—((S)-1,1,1-trifluoropropan-2-yl)pyrazolo[1,5-a]pyrimidine-3-carboxamide]",,6.96,< 6.00
"Cn1cc(F)cc([C@H]2CCCN2c2ccn3ncc(C(=O)NC(C)(C)C)c3n2)c1=O [Example 226, (R)—N-tert-butyl-5-(2-(5-fluoro-1-methyl-2-oxo-1,2-dihydropyridin-3-yl)pyrrolidin-1-yl)pyrazolo[1,5-a]pyrimidine-3-carboxamide]",< 6.00,7.98,
